{"source": "paper PMC6785188", "about": "(ACS chemical neuroscience, 2019)", "key": {"D1 [1]": {"biological_target": "T1, D1 (Homo sapiens, UniProt P21728)", "T1 sequence (P21728 whole entry)": "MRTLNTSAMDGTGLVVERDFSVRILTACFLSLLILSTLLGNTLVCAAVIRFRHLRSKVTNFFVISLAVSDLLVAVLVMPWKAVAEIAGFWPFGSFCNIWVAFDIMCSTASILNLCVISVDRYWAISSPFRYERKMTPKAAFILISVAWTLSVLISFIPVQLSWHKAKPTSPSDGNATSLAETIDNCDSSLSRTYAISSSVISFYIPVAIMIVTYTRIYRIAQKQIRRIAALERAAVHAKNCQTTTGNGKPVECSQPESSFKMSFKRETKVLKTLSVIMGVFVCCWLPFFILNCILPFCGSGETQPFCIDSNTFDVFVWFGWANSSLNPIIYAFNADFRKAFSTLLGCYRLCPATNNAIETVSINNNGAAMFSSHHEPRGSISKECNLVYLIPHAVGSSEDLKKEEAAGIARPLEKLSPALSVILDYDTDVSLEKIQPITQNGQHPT", "assay": "D1R GS-mediated cAMP accumulation GloSensor assay", "format": "cell-based", "conditions": "for Emax: read-out: GS-cAMP EMAX; for activity in GS-cAMP accumulation (in words): GloSensor"}, "D1 [2]": {"biological_target": "T1, D1", "assay": "BRET β-arrestin2 recruitment assay", "format": "cell-based", "conditions": "for activity in β-arrestin2 recruitment (in words): BRET; for Emax: read-out: β-arrestin2 EMAX"}, "6-OHDA-lesioned mice": {"tested_on": "6-OHDA-lesioned mice", "assay": "Motor activity study in 6-OHDA-lesioned mice", "format": "in vivo", "conditions": "5 mg/kg i.p."}}, "data": [{"smiles": "Cc1cc(Oc2nccc3occc23)ccc1-c1c(C)cn[nH]c1=O", "note": "[Compound 13, 4-(4-(Furo[3,2-c]pyridin-4-yloxy)-2-methylphenyl)-5-methylpyridazin-3(2H)-one]", "values": [{"measurement": "EC50", "setting": "D1 [1]", "value": 205, "unit": "nM"}, {"measurement": "Emax", "setting": "D1 [1]", "value": 82, "unit": "%"}, {"measurement": "activity in β-arrestin2 recruitment (in words)", "setting": "D1 [2]", "value": "no activity"}]}, {"smiles": "Cc1cc(Oc2nccc3sccc23)ccc1-c1c(C)c(=O)[nH]c(=O)n1C", "note": "[Compound 39, 1,5-Dimethyl-6-(2-methyl-4-(thieno[3,2-c]pyridin-4-yloxy)-phenyl)pyrimidine-2,4(1H,3H)-dione]", "values": [{"measurement": "EC50", "setting": "D1 [1]", "value": 7, "unit": "nM"}, {"measurement": "Emax", "setting": "D1 [1]", "value": 104, "unit": "%"}, {"measurement": "EC50", "setting": "D1 [2]", "value": 13, "unit": "nM"}, {"measurement": "Emax", "setting": "D1 [2]", "value": 30, "unit": "%"}]}, {"smiles": "CCn1c(-c2ccc(Oc3nccc4occc34)cc2C)c(C)c(=O)[nH]c1=O", "note": "[Compound 17, 1-Ethyl-6-(4-(furo[3,2-c]pyridin-4-yloxy)-2-methylphenyl)-5-methylpyrimidine-2,4(1H,3H)-dione]", "values": [{"measurement": "EC50", "setting": "D1 [1]", "value": 0.08, "unit": "nM"}, {"measurement": "Emax", "setting": "D1 [1]", "value": 95, "unit": "%"}, {"measurement": "EC50", "setting": "D1 [2]", "value": 13, "unit": "nM"}, {"measurement": "Emax", "setting": "D1 [2]", "value": 65, "unit": "%"}]}, {"smiles": "Cc1cc(Oc2ncccc2C(F)(F)F)ccc1-c1c(C)c(=O)[nH]c(=O)n1C", "note": "[Compound 32, 1,5-Dimethyl-6-(2-methyl-4-((3-(trifluoromethyl)pyridin-2-yl)-oxy)phenyl)pyrimidine-2,4(1H,3H)-dione]", "values": [{"measurement": "Emax", "setting": "D1 [1]", "value": 118, "unit": "%"}, {"measurement": "Emax", "setting": "D1 [2]", "value": 30, "unit": "%"}]}, {"smiles": "Cc1cc(Oc2ccccn2)ccc1-c1c(C)c(=O)[nH]c(=O)n1C", "note": "[Compound 30, 1,5-Dimethyl-6-(2-methyl-4-(pyridin-2-yloxy)phenyl)pyrimidine-2,4(1H,3H)-dione]", "values": [{"measurement": "Emax", "setting": "D1 [1]", "value": 107, "unit": "%"}, {"measurement": "Emax", "setting": "D1 [2]", "value": 40, "unit": "%"}]}, {"smiles": "Cc1cc(Oc2nccc3occc23)ccc1-c1c(C)c(=O)[nH]c(=O)n1C1CCC1", "note": "[Compound 20, 1-Cyclobutyl-6-(4-(furo[3,2-c]pyridin-4-yloxy)-2-methylphenyl)-5-methylpyrimidine-2,4(1H,3H)-dione]", "values": [{"measurement": "EC50", "setting": "D1 [1]", "value": 0.8, "unit": "nM"}, {"measurement": "Emax", "setting": "D1 [1]", "value": 82, "unit": "%"}, {"measurement": "activity in β-arrestin2 recruitment (in words)", "setting": "D1 [2]", "value": "no activity"}]}, {"smiles": "Cc1cc(Oc2nccc3occc23)ccc1-c1cc(=O)[nH]c(=O)[nH]1", "note": "[Compound 9, 6-(4-(Furo[3,2-c]pyridin-4-yloxy)-2-methylphenyl)pyrimidine-2,4(1H,3H)-dione]", "values": [{"measurement": "EC50", "setting": "D1 [1]", "value": 9, "unit": "nM"}, {"measurement": "Emax", "setting": "D1 [1]", "value": 78, "unit": "%"}, {"measurement": "EC50", "setting": "D1 [2]", "value": 2090, "unit": "nM"}, {"measurement": "Emax", "setting": "D1 [2]", "value": 37, "unit": "%"}]}, {"smiles": "COc1ccnc(Oc2ccc(-c3c(C)c(=O)[nH]c(=O)n3C)c(C)c2)c1C#N", "note": "[Compound 33, 2-(4-(3,5-Dimethyl-2,6-dioxo-1,2,3,6-tetrahydropyrimidin-4-yl)-3-methylphenoxy)-4-methoxynicotinonitrile]", "values": [{"measurement": "EC50", "setting": "D1 [1]", "value": 23, "unit": "nM"}, {"measurement": "Emax", "setting": "D1 [1]", "value": 59, "unit": "%"}, {"measurement": "activity in β-arrestin2 recruitment (in words)", "setting": "D1 [2]", "value": "no activity"}]}, {"smiles": "Cc1cc(-c2c(C)c(=O)[nH]c(=O)n2C)ccc1Oc1nccc2occc12", "note": "[Compound 26, 6-(4-(Furo[3,2-c]pyridin-4-yloxy)-3-methylphenyl)-1,5-dimethylpyrimidine-2,4(1H,3H)-dione]", "values": [{"measurement": "EC50", "setting": "D1 [1]", "value": 33, "unit": "nM"}, {"measurement": "Emax", "setting": "D1 [1]", "value": 100, "unit": "%"}, {"measurement": "activity in β-arrestin2 recruitment (in words)", "setting": "D1 [2]", "value": "no activity"}]}, {"smiles": "Cc1cc(Oc2nccc3occc23)ccc1C1=CCN(C)CC1", "note": "[Compound 1, 4-(3-Methyl-4-(1-methyl-1,2,3,6-tetrahydropyridin-4-yl)-phenoxy)furo[3,2-c]pyridine]", "values": [{"measurement": "activity in GS-cAMP accumulation (in words)", "setting": "D1 [1]", "value": "largely inactive"}, {"measurement": "activity in β-arrestin2 recruitment (in words)", "setting": "D1 [2]", "value": "largely inactive"}]}, {"smiles": "COc1ccc(-c2c(C)c(=O)[nH]c(=O)n2C)c(C)c1", "note": "[Compound 29, 6-(4-Methoxy-2-methylphenyl)-1,5-dimethylpyrimidine-2,4-(1H,3H)-dione]", "values": [{"measurement": "activity in GS-cAMP accumulation (in words)", "setting": "D1 [1]", "value": "inactive"}, {"measurement": "activity in β-arrestin2 recruitment (in words)", "setting": "D1 [2]", "value": "inactive"}]}, {"smiles": "Cc1cc(Oc2nccc3occc23)ccc1-c1cc[nH]c(=O)c1", "note": "[Compound 3, 4-(4-(Furo[3,2-c]pyridin-4-yloxy)-2-methylphenyl)pyridin-2(1H)-one]", "values": [{"measurement": "EC50", "setting": "D1 [1]", "value": 176, "unit": "nM"}, {"measurement": "Emax", "setting": "D1 [1]", "value": 81, "unit": "%"}, {"measurement": "activity in β-arrestin2 recruitment (in words)", "setting": "D1 [2]", "value": "no activity"}]}, {"smiles": "Cc1cc(Oc2nccc3occc23)ccc1-c1cn[nH]c(=O)c1C", "note": "[Compound 12, 5-(4-(Furo[3,2-c]pyridin-4-yloxy)-2-methylphenyl)-4-methylpyridazin-3(2H)-one]", "values": [{"measurement": "EC50", "setting": "D1 [1]", "value": 1.1, "unit": "nM"}, {"measurement": "Emax", "setting": "D1 [1]", "value": 92, "unit": "%"}, {"measurement": "EC50", "setting": "D1 [2]", "value": 196, "unit": "nM"}, {"measurement": "Emax", "setting": "D1 [2]", "value": 63, "unit": "%"}]}, {"smiles": "Oc1cc2c(c(Cl)c1O)CCNCC2c1ccccc1", "note": "(stereo not drawn) [SKF81297, reference compound]", "values": [{"measurement": "forward locomotion compared to vehicle after 1 h", "setting": "6-OHDA-lesioned mice; 61–90 min interval", "value": "no longer displayed significantly increased forward locomotion"}, {"measurement": "number of contralateral rotations vs vehicle", "setting": "6-OHDA-lesioned mice; 90 min", "value": "significant increases"}]}, {"smiles": "Cc1cc(Oc2nccc3occc23)ccc1-c1cc(N)nc(N)n1", "note": "[Compound 8, 6-(4-(Furo[3,2-c]pyridin-4-yloxy)-2-methylphenyl)pyrimidine-2,4-diamine]", "values": [{"measurement": "EC50", "setting": "D1 [1]", "value": "> 10000", "unit": "nM"}, {"measurement": "activity in β-arrestin2 recruitment (in words)", "setting": "D1 [2]", "value": "no activity"}]}, {"smiles": "Cc1cc(Oc2nccc3ccccc23)ccc1-c1c(C)c(=O)[nH]c(=O)n1C", "note": "[Compound 38, 6-(4-(Isoquinolin-1-yloxy)-2-methylphenyl)-1,5-dimethylpyrimidine-2,4(1H,3H)-dione]", "values": [{"measurement": "EC50", "setting": "D1 [1]", "value": 0.4, "unit": "nM"}, {"measurement": "Emax", "setting": "D1 [1]", "value": 115, "unit": "%"}, {"measurement": "EC50", "setting": "D1 [2]", "value": "> 10000", "unit": "nM"}]}, {"smiles": "Cc1cc(Oc2nccc(Cl)c2C(F)(F)F)ccc1-c1c(C)c(=O)[nH]c(=O)n1C", "note": "[Compound 34, 6-(4-((4-Chloro-3-(trifluoromethyl)pyridin-2-yl)oxy)-2-methyl-phenyl)-1,5-dimethylpyrimidine-2,4(1H,3H)-dione]", "values": [{"measurement": "EC50", "setting": "D1 [1]", "value": 105, "unit": "nM"}, {"measurement": "Emax", "setting": "D1 [1]", "value": 82, "unit": "%"}, {"measurement": "activity in β-arrestin2 recruitment (in words)", "setting": "D1 [2]", "value": "no activity"}]}, {"smiles": "Cc1c(-c2ccc(Oc3nccc4occc34)cc2)n(C)c(=O)[nH]c1=O", "note": "[Compound 27, 6-(4-(Furo[3,2-c]pyridin-4-yloxy)phenyl)-1,5-dimethylpyrimidine-2,4(1H,3H)-dione]", "values": [{"measurement": "EC50", "setting": "D1 [1]", "value": 0.08, "unit": "nM"}, {"measurement": "Emax", "setting": "D1 [1]", "value": 96, "unit": "%"}, {"measurement": "EC50", "setting": "D1 [2]", "value": 40, "unit": "nM"}, {"measurement": "Emax", "setting": "D1 [2]", "value": 75, "unit": "%"}]}, {"smiles": "Cc1cc(O)ccc1-c1c(C)c(=O)[nH]c(=O)n1C", "note": "[Compound 28, 6-(4-Hydroxy-2-methylphenyl)-1,5-dimethylpyrimidine-2,4-(1H,3H)-dione]", "values": [{"measurement": "activity in GS-cAMP accumulation (in words)", "setting": "D1 [1]", "value": "inactive"}, {"measurement": "activity in β-arrestin2 recruitment (in words)", "setting": "D1 [2]", "value": "inactive"}]}, {"smiles": "COc1ccnc(Oc2ccc(-c3c(C)c(=O)[nH]c(=O)n3C)c(C)c2)c1", "note": "[Compound 31, 6-(4-((4-Methoxypyridin-2-yl)oxy)-2-methylphenyl)-1,5-dimethylpyrimidine-2,4(1H,3H)-dione]", "values": [{"measurement": "EC50", "setting": "D1 [1]", "value": 2, "unit": "nM"}, {"measurement": "Emax", "setting": "D1 [1]", "value": 108, "unit": "%"}, {"measurement": "EC50", "setting": "D1 [2]", "value": 52, "unit": "nM"}, {"measurement": "Emax", "setting": "D1 [2]", "value": 27, "unit": "%"}]}, {"smiles": "Cc1cc(Oc2nccc3occc23)ccc1-c1cc(=O)[nH]cn1", "note": "[Compound 5, 6-(4-(Furo[3,2-c]pyridin-4-yloxy)-2-methylphenyl)pyrimidin-4(3H)-one]", "values": [{"measurement": "EC50", "setting": "D1 [1]", "value": 133, "unit": "nM"}, {"measurement": "Emax", "setting": "D1 [1]", "value": 96, "unit": "%"}, {"measurement": "EC50", "setting": "D1 [2]", "value": "> 10000", "unit": "nM"}]}, {"smiles": "Cc1cc(Oc2nccc3occc23)ccc1-c1c(C)cnc(=O)n1C", "note": "[Compound 11, 6-(4-(Furo[3,2-c]pyridin-4-yloxy)-2-methylphenyl)-1,5-dimethylpyrimidin-2(1H)-one]", "values": [{"measurement": "EC50", "setting": "D1 [1]", "value": 1.8, "unit": "nM"}, {"measurement": "Emax", "setting": "D1 [1]", "value": 88, "unit": "%"}, {"measurement": "EC50", "setting": "D1 [2]", "value": 151, "unit": "nM"}, {"measurement": "Emax", "setting": "D1 [2]", "value": 19, "unit": "%"}]}, {"smiles": "Cc1cc(Oc2nccc3occc23)ccc1-c1c(C)c(=O)[nH]c(=O)n1CC1CC1", "note": "[Compound 19, 1-(Cyclopropylmethyl)-6-(4-(furo[3,2-c]pyridin-4-yloxy)-2-methylphenyl)-5-methylpyrimidine-2,4(1H,3H)-dione]", "values": [{"measurement": "EC50", "setting": "D1 [1]", "value": 0.5, "unit": "nM"}, {"measurement": "Emax", "setting": "D1 [1]", "value": 84, "unit": "%"}, {"measurement": "activity in β-arrestin2 recruitment (in words)", "setting": "D1 [2]", "value": "no activity"}]}]}
